Biological target: T1, Carbonic anhydrase (Saccharomyces cerevisiae S288c, UniProt P53615)
T1 sequence (P53615 whole entry): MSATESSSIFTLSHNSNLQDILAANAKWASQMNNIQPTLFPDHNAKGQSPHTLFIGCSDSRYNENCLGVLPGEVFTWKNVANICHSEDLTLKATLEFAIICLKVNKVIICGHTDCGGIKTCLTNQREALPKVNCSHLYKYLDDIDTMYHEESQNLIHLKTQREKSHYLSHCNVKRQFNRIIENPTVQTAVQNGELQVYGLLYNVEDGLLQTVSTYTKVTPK
Description: Inhibition of Saccharomyces cerevisiae recombinant CA expressed in Escherichia coli by stopped-flow CO2 hydrase assay

Structure (SMILES) | Ki [nM]
Nc1nnc(S(N)(=O)=O)s1 | 447
Nc1ccc(S(=O)(=O)NCc2ccc(S(N)(=O)=O)cc2)cc1 | 166
Nc1cc(Cl)c(S(N)(=O)=O)cc1S(N)(=O)=O | 169
Nc1ccc(S(N)(=O)=O)cc1I | 976
Nc1ccc(S(=O)(=O)Nc2nnc(S(N)(=O)=O)s2)cc1 | 124
NS(=O)(=O)c1nnc(-c2ccccc2Cl)s1 | 565
Nc1nccc(Nc2ccc(S(N)(=O)=O)cc2)n1 | 15.1
Nc1ccc(S(N)(=O)=O)cc1Br | 248
NS(=O)(=O)c1ccc(CCO)cc1 | 7540
Nc1ccc(S(N)(=O)=O)cc1F | 389
NS(=O)(=O)c1ccc(CO)cc1 | 8970
NCCc1ccc(S(N)(=O)=O)cc1 | 163
Nc1ccc(S(N)(=O)=O)cc1Cl | 457
Nc1ccc(S(=O)(=O)NCCc2ccc(S(N)(=O)=O)cc2)cc1 | 154
NS(=O)(=O)c1ccc(S(=O)(=O)Nc2cccc3c(Cl)c[nH]c23)cc1 | 133
Nc1cc(C(F)(F)F)c(S(N)(=O)=O)cc1S(N)(=O)=O [2,4-DISULFAMYLTRIFLUOROMETHYLANILINE] | 223
NS(=O)(=O)c1nnc(NS(=O)(=O)c2ccccc2)s1 [BENZOLAMIDE] | 111
CCN[C@H]1CN(CCCOC)S(=O)(=O)c2sc(S(N)(=O)=O)cc21 [BRINZOLAMIDE] | 114
NS(=O)(=O)c1ccc(C(=O)O)cc1 [CARZENIDE] | 14500
Cc1ccc(-c2cc(C(F)(F)F)nn2-c2ccc(S(N)(=O)=O)cc2)cc1 [CELECOXIB] | 108
NCc1ccc(S(N)(=O)=O)cc1 [MAFENIDE] | 433
Cc1ccc(S(N)(=O)=O)cc1 [P-TOLUENESULFONAMIDE] | 16100
O=C1NS(=O)(=O)c2ccccc21 [SACCHARIN] | 12500
Nc1ccc(S(N)(=O)=O)cc1 [SULFANILAMIDE] | 18500
CC1(C)O[C@@H]2[C@@H](CO[C@@]3(COS(N)(=O)=O)OC(C)(C)O[C@@H]23)O1 [TOPIRAMATE] | 110

— ChEMBL document CHEMBL1143347, “Carbonic anhydrase inhibitors: inhibition of the beta-class enzyme from the yeast Saccharomyces cerevisiae with sulfonamides and sulfamates” (Bioorg Med Chem, 2009)
